Among the data in ChEMBL document CHEMBL3352627, “Brocazines A-F, Cytotoxic Bisthiodiketopiperazine Derivatives from Penicillium brocae MA-231, an Endophytic Fungus Derived from the Marine Mangrove Plant Avicennia marina” (J Nat Prod, 2014) are IC50 values, retold here.

Usually IC50 stands for the concentration at which inhibition is half-maximal.

Common to all, as to type: functional, cell-based
One test concerns DU-145. The test can be described thus: Cytotoxicity against human DU145 cells assessed as reduction in cell viability.
The subject of a further test is HeLa. The test can be described thus: Cytotoxicity against human HeLa cells assessed as reduction in cell viability.
For another test, the system named is HepG2. As to the kind of experiment: Cytotoxicity against human HepG2 cells assessed as reduction in cell viability.
Another test deals with MCF7. The test can be described thus: Cytotoxicity against human MCF7 cells assessed as reduction in cell viability.
Another test deals with NCI-H460. The test can be described thus: cells. To be noted: Homo sapiens.
The test system of a further test is SW480. The test can be described thus: Cytotoxicity against human SW480 cells assessed as reduction in cell viability.
Test [1] in a line: Cytotoxicity against human SGC7901 cells assessed as reduction in cell viability. To be noted: SGC-7901.
The next test relates to SW1990. The test can be described thus: Cytotoxicity against human SW1990 cells assessed as reduction in cell viability.
The test system of another test is U-251. As to the kind of experiment: Cytotoxicity against human U251 cells assessed as reduction in cell viability.

A value given as a limit tells only on which side of the number the result lay.

Description for NCI-H460: Cytotoxicity against human NCI-H460 cells assessed as reduction in cell viability

As for `CO[C@H]1CC(=O)[C@@H]2C[C@@]34SS[C@]5(C[C@@H]6C(=O)C=C[C@H](O)[C@H]6N5C3=O)C(=O)N4[C@@H]2[C@H]1O`, the IC50 in the test on DU-145 came out at 4.2 µM; with HeLa it was 6.8 µM; with HepG2 it was 6.4 µM; in the test with MCF7, 5.5 µM; in the test on NCI-H460, 4.9 µM; in the test with SW480 it was 2 µM. Besides, the figures for the IC50 (in [1]; with SW1990; with U-251) were 2.6 µM, 6 µM and 5.2 µM, respectively.
For `O=C1C=C[C@H](O)[C@@H]2[C@@H]1C[C@@]13SS[C@]4(C[C@H]5C(=O)CC[C@H](O)[C@H]5N4C1=O)C(=O)N23`, the half-maximal inhibitory concentration (IC50) in the test with DU-145 was 3.6 µM; in the test on HeLa, 5.3 µM; in the test with HepG2, 5.5 µM; in the test with MCF7, 6.1 µM; with NCI-H460, 4 µM; in the test with SW480, 1.2 µM. The IC50 in [1] is 2.4 µM; in the test with SW1990 it was 6.4 µM; in the test with U-251 it was 3.5 µM.
Take `O=C1C[C@H](O)[C@H](O)[C@@H]2[C@H]1C[C@@]13SS[C@]4(C[C@H]5[C@@H]([C@@H](O)C=C[C@@H]5O)N4C1=O)C(=O)N23`: the IC50 with DU-145, in the test with HeLa, in the test with HepG2, with MCF7, in the test on NCI-H460 and in the test with SW480 was above 20 µM in each case. In addition, the concentration for half-maximal inhibition (IC50) (in test [1]; in the test with SW1990; in the test with U-251) was above 20 µM in each case.
As for `CO[C@H]1CC(=O)[C@@H]2C[C@@]34SS[C@]5(C[C@H]6C(=O)C[C@H](O)[C@H](O)[C@H]6N5C3=O)C(=O)N4[C@@H]2[C@H]1O`, the IC50 in the test with DU-145, with HeLa, in the test with HepG2, in the test on MCF7, with NCI-H460 and in the test with SW480 was above 20 µM in each case. The IC50 (in test [1]; with SW1990; with U-251) was above 20 µM each time.
As to `O=C1N2[C@H]3[C@H](C[C@]24SS[C@]12C[C@H]1[C@@H]([C@@H](O)C=C[C@@H]1O)N2C4=O)[C@@H](O)C=C[C@@H]3O`, the half-maximal inhibitory concentration (IC50) amounted to 11.2 µM in the test with DU-145; 4.3 µM in the test on HeLa; 5.6 µM in the test with HepG2; 9 µM in the test with MCF7; 12.4 µM with NCI-H460; 3.3 µM in [1]. In addition, the IC50 in the test on SW1990 was determined as 2.1 µM; with U-251 it was 6.1 µM.
For the molecule `O=C1C=C[C@H](O)[C@@H]2[C@@H]1C[C@@]13SS[C@]4(C[C@H]5[C@@H]([C@@H](O)C=C[C@@H]5O)N4C1=O)C(=O)N23`, the IC50 with DU-145 came out at 1.7 µM; in the test with HeLa it was 6.9 µM; with HepG2 it was 2.9 µM; in the test with MCF7, 3 µM; in the test on NCI-H460, 0.89 µM; in test [1], 8 µM. Moreover, the IC50 in the test on SW1990 turned out to be 5.9 µM; with U-251, 5.3 µM.
Consider `COc1cccc2c1C(=O)c1c(O)c3c(c(O)c1C2=O)C[C@@](O)(C(=O)CO)C[C@@H]3O[C@H]1C[C@H](N)[C@H](O)[C@H](C)O1` [DOXORUBICIN], for which the 50% inhibitory concentration (IC50) in test [1] is 2.9 µM.
Regarding `Nc1ccn([C@@H]2O[C@H](CO)[C@@H](O)C2(F)F)c(=O)n1` [GEMCITABINE], in the test with SW1990, the IC50 amounted to 2.2 µM.
`CC(=O)O[C@H]1C(=O)[C@@]2(C)[C@H]([C@H](OC(=O)c3ccccc3)[C@]3(O)C[C@H](OC(=O)[C@H](O)[C@@H](NC(=O)c4ccccc4)c4ccccc4)C(C)=C1C3(C)C)[C@]1(OC(C)=O)CO[C@@H]1C[C@@H]2O` [PACLITAXEL]: the IC50 in the test on DU-145 is 1.5 µM; with HeLa it was 5 µM; in the test on MCF7, 1.8 µM.
